Values of other authors, collected in patent US6749871B2, “Compositions for treating symptoms of urogenital/urological disorders” (Prater Herbs, L.L.C., priority 2002, dated 2004).

Test system: benign prostatic hyperplasia
Settings: three-year clinical evaluation

## CC(C)(C)NC(=O)[C@H]1CC[C@H]2[C@@H]3CC[C@H]4NC(=O)C=C[C@]4(C)[C@H]3CC[C@]12C [Finasteride]
  Improvement in urinary flow rate: 2.3 ml per second
  Participants with side effects such as decreased libido and impotence: about four to five percent
  Reduction in prostatic volume: about 27%
  Reduction in symptom score: 3.6 points
